Molecules are shown by their SMILES. The source made the active and inactive calls. The rule behind the calls is not given here.

Data set [1] concerns the target Lysine-specific histone demethylase 1A (Homo sapiens, UniProt O60341).
Description: Inhibition of recombinant LSD1 (157 to 852) (unknown origin) transfected in Escherichia coli BL21(DE) by fluorescence assay
Data set [2] deals with MGC-803. The data set can be described thus: Induction of apoptosis in human MGC803 cells assessed as crescent nuclei at 2 to 8 uM after 24 hrs by Hoechst 33258 staining-based fluorescence microscopy. The data set is classed as functional, cell-based.
Data set [3] concerns MGC-803. The data set can be described thus: Induction of apoptosis in human MGC803 cells assessed as chromatin shrinkage at 2 to 8 uM after 24 hrs by Hoechst 33258 staining-based fluorescence microscopy. The class given is functional, cell-based.
Data set [4] concerns MGC-803. Nature of the data set: Induction of apoptosis in human MGC803 cells assessed as formation of apoptotic bodies at 2 to 8 uM after 24 hrs by Hoechst 33258 staining-based fluorescence microscopy. The data set is classed as functional, cell-based.
Data set [5] relates to MGC-803. The data set can be described thus: Induction of apoptosis in human MGC803 cells assessed as formation of apoptotic bodies after 48 hrs by annexinV-FITC/propidium iodide staining-based flow cytometry. The class given is functional, cell-based.
A short description of data set [6]: Induction of apoptosis in human MGC803 cells assessed as upregulation of Bax expression after 48 hrs by Western blotting analysis. The data set is classed as functional, cell-based. Conditions: MGC-803. In general terms: In western blotting, separated proteins are transferred to a membrane and probed.
Data set [7] relates to MGC-803. The data set can be described thus: Induction of apoptosis in human MGC803 cells assessed as down regulation of Bcl2 expression after 48 hrs by Western blotting analysis. The data set is classed as functional, cell-based.
The test system of data set [8] is Mus musculus. Nature of the data set: Toxicity in nude BALB/C mouse xenografted with human MGC803 cells assessed as weight loss at 50 to 100 mg/kg, po. The data set is classed as organism-based, MGC-803. Also noted: dose 50-100 mg/kg, route oral. The settings on record: in vivo. In general terms: In xenograft studies the graft and the host belong to different species.

The subject of data set [9] is Mus musculus. The data set can be described thus: Upregulation of Bax expression in nude BALB/C mouse xenografted with human MGC803 cells at 50 to 100 mg/kg, po administered for 21 days. The class given is functional, organism-based. The settings on record: MGC-803.
The test system of data set [10] is Mus musculus. Nature of the data set: Downregulation of Bcl2 expression in nude BALB/C mouse xenografted with human MGC803 cells at 50 to 100 mg/kg, po administered for 21 days. The data set is classed as functional, organism-based. Conditions: MGC-803.
The subject of data set [11] is MGC-803. Nature of the data set: Antimigratory activity against human MGC803 cells at >5 uM after 48 hrs by transwell assay. The data set is classed as functional, cell-based.
The subject of data set [12] is MGC-803. The data set can be described thus: Antiinvasive activity against human MGC803 cells at >5 uM after 48 hrs by matrigel-coated transwell assay. The data set is classed as functional, cell-based.
Data set [13] is described as follows: Antimetastatic activity in mouse B16F10 cells […] in C57BL/6 mouse assessed as lung metastatic nodule at 50 mg/kg, po administered for 14 days (reference value: 26.6 +/- 8.7). The class given is functional, B16-F10.
Data set [14] can be described thus: Antimetastatic activity in mouse B16F10 cells […] in C57BL/6 mouse assessed as lung metastatic nodule at 100 mg/kg, po administered for 14 days (reference value: 26.6 +/- 8.7). The class given is functional, B16-F10.
Data set [15] concerns MGC-803. Nature of the data set: Antiinvasive activity against human MGC803 cells at 1.25 to 5 uM after 48 hrs by wound healing assay. The data set is classed as functional, cell-based.
In data set [16] the target is T1, Amine oxidase [flavin-containing] A (Homo sapiens, UniProt P21397).
T1 sequence (P21397 whole entry): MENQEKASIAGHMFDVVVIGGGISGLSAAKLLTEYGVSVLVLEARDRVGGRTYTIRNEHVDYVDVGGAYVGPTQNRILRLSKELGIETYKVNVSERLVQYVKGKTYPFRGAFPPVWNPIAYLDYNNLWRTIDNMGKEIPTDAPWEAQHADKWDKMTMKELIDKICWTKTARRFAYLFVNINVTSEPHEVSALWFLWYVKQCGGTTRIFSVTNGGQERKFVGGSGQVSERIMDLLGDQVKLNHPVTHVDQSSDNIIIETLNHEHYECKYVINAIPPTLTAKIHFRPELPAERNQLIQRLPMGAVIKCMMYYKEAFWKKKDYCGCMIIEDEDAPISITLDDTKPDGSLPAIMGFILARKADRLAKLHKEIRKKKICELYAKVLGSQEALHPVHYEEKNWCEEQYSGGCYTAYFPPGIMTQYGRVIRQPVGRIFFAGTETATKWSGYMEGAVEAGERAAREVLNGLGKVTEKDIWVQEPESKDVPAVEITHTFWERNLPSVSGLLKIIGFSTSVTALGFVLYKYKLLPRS
Description: Inhibition of MAOA (unknown origin)

Data set [17] has as its target T2, Amine oxidase [flavin-containing] B (Homo sapiens, UniProt P27338).
T2 sequence (P27338 whole entry): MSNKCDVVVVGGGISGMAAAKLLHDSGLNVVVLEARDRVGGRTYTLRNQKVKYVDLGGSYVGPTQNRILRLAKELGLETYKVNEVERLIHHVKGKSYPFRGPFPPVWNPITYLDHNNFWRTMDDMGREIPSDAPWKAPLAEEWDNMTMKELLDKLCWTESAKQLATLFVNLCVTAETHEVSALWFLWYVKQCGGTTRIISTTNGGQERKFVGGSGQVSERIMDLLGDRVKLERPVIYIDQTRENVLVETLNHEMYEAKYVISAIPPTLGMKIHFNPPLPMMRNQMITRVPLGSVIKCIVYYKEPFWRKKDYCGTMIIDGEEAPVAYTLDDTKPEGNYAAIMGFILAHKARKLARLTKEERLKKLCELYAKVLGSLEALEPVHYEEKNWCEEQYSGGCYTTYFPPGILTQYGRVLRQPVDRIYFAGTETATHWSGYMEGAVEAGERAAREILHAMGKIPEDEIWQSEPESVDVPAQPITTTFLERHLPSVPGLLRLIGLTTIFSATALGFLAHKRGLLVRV
Description: Inhibition of MAOB (unknown origin)

In data set [18] the test system is MGC-803. Conditions: Homo sapiens, 1.25 to 5 uM.
Description: Inhibition of epithelial-mesenchymal transition in human MGC803 cells assessed as down regulation of N-Cadherin at 1.25 to 5 uM after 48 hrs by Western blotting analysis
The test system of data set [19] is MGC-803. Nature of the data set: cells. Conditions: Homo sapiens, MGC-803, 72 h.
Description: Cytotoxicity against human MGC803 cells after 72 hrs by MTT assay
A short description of data set [20]: cells. Conditions: Homo sapiens, HGC-27, 72 h.
Description: Cytotoxicity against human HGC27 cells after 72 hrs by MTT assay
Data set [21] is described as follows: cells. The settings on record: Homo sapiens, SGC-7901, 72 h.
Description: Cytotoxicity against human SGC7901 cells after 72 hrs by MTT assay
Data set [22] is described as follows: cells. Conditions: Homo sapiens, GES1, 72 h.
Description: Cytotoxicity against human GES-1 cells after 72 hrs by MTT assay
In data set [23] the test system is MGC-803. Nature of the data set: animal or person. Conditions: Mus musculus, MGC-803, po, 504 h, read-out: TGI.
Description: Antitumor activity against human MGC803 cells xenografted in nude BALB/C mouse assessed as reduction of tumor weight at 50 mg/kg, po administered for 21 days relative to vehicle-treated control
In data set [24] the test system is MGC-803. Nature of the data set: animal or person. Conditions: Mus musculus, MGC-803, po, 504 h, read-out: TGI. The source holds these as a separate data set.
Description: Antitumor activity against human MGC803 cells xenografted in nude BALB/C mouse assessed as reduction of tumor weight at 100 mg/kg, po administered for 21 days relative to vehicle-treated control

Broadly, the IC50 is the point on the concentration scale where inhibition reaches its midpoint. High values mean a need for much substance, low ones inhibition by little substance. In data set [1], `C#CCSc1nc(Cl)c(C#N)c(-c2ccc([N+](=O)[O-])cc2)n1` came in with an IC50 of over 125 µM.
Still for that read-out and setting: then `COc1cc(-c2nc(SCc3ccc(F)cc3)nc(NNC(N)=S)c2C#N)cc(OC)c1OC`, with over 125 µM.
On the same count and under the same terms, for `C#CCSc1nc(Nc2ccc(Cl)cc2)c(C#N)c(-c2ccccc2)n1` the value was over 125 µM.
On the same count and under the same terms, for `C#CCSc1nc(Nc2ccc(OC)cc2)c(C#N)c(-c2cc(OC)c(OC)c(OC)c2)n1` the value was over 125 µM.
`C#CCSc1nc(Nc2cccc(C(F)(F)F)c2)c(C#N)c(-c2cc(OC)c(OC)c(OC)c2)n1` gave an IC50 in data set [1] of over 125 µM.
Compound `C#CCSc1nc(Nc2ccc(F)cc2)c(C#N)c(-c2ccccc2)n1` returned an IC50 in data set [1] of over 125 µM.
Still for that read-out and setting: then `C#CCSc1nc(NNC(=N)N)c(C#N)c(-c2ccc([N+](=O)[O-])cc2)n1`, with over 125 µM.
As to `C#CCSc1nc(NNC(N)=S)c(C#N)c(-c2cc(OC)c(OC)c(OC)c2)n1`, the outcome with MGC-803 [2], with MGC-803 [3], in the data set on MGC-803 [4], in the data set with Mus musculus [9], in the data set with Mus musculus [10] and with MGC-803 [11] was Active. In addition, the result in the data set on MGC-803 [12] and with MGC-803 [15] was Active. Also, the Activity entry with MGC-803 [5] was “Dose-dependent effect”; in [6], “Dose-dependent effect”; in the data set on MGC-803 [7] it was “Dose-dependent effect”; in the data set with Mus musculus [8], “Non-toxic”; in data set [13] it was 12.1; in [14], 8.4. Also, the IC50 in data set [16] is over 1250 µM; in [17], over 1250 µM; with MGC-803 [19], 4.01 µM; in “cells [20]” it was 8.92 µM; in “cells [21]”, 67.5 µM; in the data set “cells [22]” it was 58.9 µM. For the same compound, the inhibition result in the data set with MGC-803 [18] was “Active”. The inhibition in vivo at 50 mg/kg in the data set on MGC-803 [23] came out at 55.1%. In the data set with MGC-803 [24], the inhibition in vivo at 100 mg/kg was determined as 72.1%.
In turn, `C#CCSc1nc(Nc2ccc(Cl)cc2)c(C#N)c(-c2ccc(Br)cc2)n1` came in with an IC50 in [1] of over 125 µM.
`C#CCSc1nc(Nc2ccc(OC)cc2)c(C#N)c(-c2ccc(Cl)cc2)n1` returned an IC50 in data set [1] of over 125 µM.
The same measure, in the same setting: for `C#CCSc1nc(Nc2ccc(C)cc2)c(C#N)c(-c2ccccc2)n1` the value was over 125 µM; for `N#Cc1c(Cl)nc(SCc2cn(Cc3ccccc3Cl)nn2)nc1-c1ccc(Cl)cc1`, over 125 µM.
In data set [1], `C#CCSc1nc(Nc2cccc(C(F)(F)F)c2)c(C#N)c(-c2ccccc2)n1` gave an IC50 of over 125 µM.
Still for that read-out and setting: for `C#CCSc1nc(Nc2cccc(C(F)(F)F)c2)c(C#N)c(-c2ccc(Cl)cc2)n1` the value was over 125 µM.
Same read-out and setting: then `C#CCSc1nc(Nc2ccc(OC)cc2)c(C#N)c(-c2ccccc2)n1`, with over 125 µM; and `C#CCSc1nc(Nc2ccc([N+](=O)[O-])cc2)c(C#N)c(-c2ccccc2)n1`, with over 125 µM.
Still for that read-out and setting: then `C#CCSc1nc(Cl)c(C#N)c(-c2cccc(Cl)c2)n1`, with over 125 µM; and `C#CCSc1nc(Nc2ccccc2Cl)c(C#N)c(-c2ccccc2)n1`, with over 125 µM.
The compound `C#CCSc1nc(Nc2cccc(Cl)c2)c(C#N)c(-c2ccccc2)n1` came in with an IC50 in data set [1] of over 125 µM.

(Values after ChEMBL document CHEMBL3414475, “Design, synthesis, and structure-activity relationship of novel LSD1 inhibitors based on pyrimidine-thiourea hybrids as potent, orally active antitumor agents” (J Med Chem, 2015).)
